Test results published in patent US8273773B2 (priority 2008, dated 2012).

Biological target: T1, HCV polymerase (NS5B570n-Con1) (Hepatitis C virus genotype 1b, UniProt Q9WMX2)
T1 construct: contains a 21 amino acid deletion at the C-terminus relative to the full-length HCV polymerase; 6-histidine (N); made in house; host or cells: E. coli strain BL21(DE) pLysS (pET17b)
Test: biochemical
Parameters: species or system HCV Con1 strain

[1] = IC50 HCV NS5B RNA Polymerase Assay (values with asterisk), values with asterisk: cIRES RNA template, 3 nM NS5B570n-Con1
[2] = IC50 HCV NS5B RNA Polymerase Assay, values without asterisk, 20 nM NS5B570n-Con1 enzyme, 20 nM cIRES RNA template
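Also: recombinant His-tagged enzyme from E. coli, radiolabeled nucleotide incorporation into acid-insoluble RNA read by scintillation after filtration, no-enzyme background subtracted, activity relative to positive control.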

COC(=O)c1cc(NS(C)(=O)=O)ccc1CCc1cc(-c2cc(F)c[nH]c2=O)cc(C(C)(C)C)c1OC [I-189] gave an IC50 [1] of 1 nM.

COc1c(CCc2ccc(NS(C)(=O)=O)cc2C(=O)O)cc(-c2cc(F)c[nH]c2=O)cc1C(C)(C)C [I-190, 2-{2-[3-tert-Butyl-5-(5-fluoro-2-oxo-1,2-dihydro-pyridin-3-yl)-2-methoxy-phenyl]-ethyl}-5-methanesulfonylamino-benzoic acid] gave an IC50 [1] of 1 nM.

Work on COc1c(CC(CN(C)C)c2ccc(NS(C)(=O)=O)cc2)cc(-c2ccc[nH]c2=O)cc1C(C)(C)C (centres unmarked) [I-192, N-(4-{2-[3-tert-Butyl-2-methoxy-5-(2-oxo-1,2-dihydro-pyridin-3-yl)-phenyl]-1-dimethylaminomethyl-ethyl}-phenyl)-methanesulfonamide] yielded an IC50 [2] of 28 nM.

COc1c(CC(C)(CO)c2ccc(NS(C)(=O)=O)cc2)cc(-c2ccc[nH]c2=O)cc1C(C)(C)C (centres unmarked) [I-198, N-(4-{2-[3-tert-Butyl-2-methoxy-5-(2-oxo-1,2-dihydro-pyridin-3-yl)-phenyl]-1-hydroxymethyl-1-methyl-ethyl}-phenyl)-methanesulfonamide] showed an IC50 [2] of 19 nM.

Work on COC(=O)c1cc(NS(C)(=O)=O)ccc1/C=C/c1cc(-c2ccc(C)[nH]c2=O)cc(C(C)(C)C)c1OC [I-201, 2-{(E)-2-[3-tert-Butyl-2-methoxy-5-(6-methyl-2-oxo-1,2-dihydro-pyridin-3-yl)-phenyl]-vinyl}-5-methanesulfonylamino-benzoic acid methyl ester] yielded an IC50 [1] of 1 nM.

COc1c(/C=C/c2ccc(NS(C)(=O)=O)cc2C(C)(C)O)cc(-c2ccc[nH]c2=O)cc1C(C)(C)C [I-204, N-[4-{(E)-2-[3-tert-Butyl-2-methoxy-5-(2-oxo-1,2-dihydro-pyridin-3-yl)-phenyl]-vinyl}-3-(1-hydroxy-1-methyl-ethyl)-phenyl]-methanesulfonamide] showed an IC50 [1] of 1 nM.

With COCc1cc(NS(C)(=O)=O)ccc1/C=C/c1cc(-c2ccc[nH]c2=O)cc(C(C)(C)C)c1OC [I-206, N-(4-{E-2-[3-tert-Butyl-2-methoxy-5-(2-oxo-1,2-dihydro-pyridin-3-yl)-phenyl]-vinyl}-3-methoxymethyl-phenyl)-methanesulfonamide] the IC50 [1] was 2 nM.

COc1c(/C=C/c2ccc(NS(C)(=O)=O)cc2C(=O)N(C)CCN(C)C)cc(-c2cc(F)c[nH]c2=O)cc1C(C)(C)C [I-207] gave an IC50 [1] of 4 nM.

In the case of COCc1cc(NS(C)(=O)=O)ccc1/C=C/c1cc(-c2ccc(C)[nH]c2=O)cc(C(C)(C)C)c1OC [I-208, N-(4-{(E)-2-[3-tert-Butyl-2-methoxy-5-(6-methyl-2-oxo-1,2-dihydro-pyridin-3-yl)-phenyl]-vinyl}-3-methoxymethyl-phenyl)-methanesulfonamide], the IC50 [1] is reported as 1 nM.

Compound COCc1cc(NS(C)(=O)=O)ccc1/C=C/c1cc(-c2ccc(OC)[nH]c2=O)cc(C(C)(C)C)c1OC [I-209, N-(4-{(E)-2-[3-tert-Butyl-2-methoxy-5-(6-methoxy-2-oxo-1,2-dihydro-pyridin-3-yl)-phenyl]-vinyl}-3-methoxymethyl-phenyl)-methanesulfonamide] has an IC50 [1] of 1 nM.

For COc1ccc(-c2cc(/C=C/c3ccc(NS(C)(=O)=O)cc3CO)c(OC)c(C(C)(C)C)c2)c(=O)[nH]1 [I-210, N-(4-{(E)-2-[3-tert-Butyl-2-methoxy-5-(6-methoxy-2-oxo-1,2-dihydro-pyridin-3-yl)-phenyl]-vinyl}-3-hydroxymethyl-phenyl)-methanesulfonamide], the IC50 [1] was 1 nM.

COc1ccc(-c2cc(/C=C/c3ccc(NS(C)(=O)=O)cc3C(=O)O)c(OC)c(C(C)(C)C)c2)c(=O)[nH]1 [I-211, 2-{(E)-2-[3-tert-Butyl-2-methoxy-5-(6-methoxy-2-oxo-1,2-dihydro-pyridin-3-yl)-phenyl]-vinyl}-5-methanesulfonylamino-benzoic acid] showed an IC50 [1] of 4 nM.

CC(C)(C)c1cc(CCc2ccc(NS(C)(=O)=O)nc2)c(C#N)c(-c2ccc[nH]c2=O)c1 [I-212, N-(5-{2-[5-tert-Butyl-2-cyano-3-(2-oxo-1,2-dihydro-pyridin-3-yl)-phenyl]-ethyl}-pyridin-2-yl)-methanesulfonamide] showed an IC50 [2] of 9 nM.

With COc1c(/C=C/c2ncc(NS(C)(=O)=O)cc2C)cc(-c2ccc[nH]c2=O)cc1C(C)(C)C [I-213, N-(6-{(E)-2-[3-tert-Butyl-2-methoxy-5-(2-oxo-1,2-dihydro-pyridin-3-yl)-phenyl]-vinyl}-5-methyl-pyridin-3-yl)-methanesulfonamide] the IC50 [1] was 3 nM.

For CC(C)(C)c1cc(CCc2ccc(NS(C)(=O)=O)cn2)c(O)c(-c2ccc[nH]c2=O)c1 [I-214, N-(6-{2-[5-tert-butyl-2-hydroxy-3-(2-oxo-1,2-dihydro-pyridin-3-yl)-phenyl]-ethyl}-pyridin-3-yl)-methanesulfonamide], the IC50 [1] was 2 nM and the IC50 [2] was 5 nM.

CC(C)(C)c1cc(CCc2ccc(NS(C)(=O)=O)cc2C#N)c(O)c(-c2ccc[nH]c2=O)c1 [I-216, N-(4-{2-[5-tert-Butyl-2-hydroxy-3-(2-oxo-1,2-dihydro-pyridin-3-yl)-phenyl]ethyl}-3-cyano-phenyl)-methanesulfonamide] showed an IC50 [2] of 5 nM.

CC(C)(C)c1cc(C#Cc2ccc(NS(C)(=O)=O)cc2F)c(O)c(-c2ccc[nH]c2=O)c1 [I-217, N-{4-[5-tert-Butyl-2-hydroxy-3-(2-oxo-1,2-dihydro-pyridin-3-yl)-phenylethynyl]-3-fluoro-phenyl}-methanesulfonamide] gave an IC50 [2] of 69 nM.

Compound COc1c(C(C)(C)C)cc(-c2ccc[nH]c2=O)c(O)c1CCc1ccc(NS(C)(=O)=O)cc1 [I-218, N-(4-{2-[3-tert-Butyl-6-hydroxy-2-methoxy-5-(2-oxo-1,2-dihydro-pyridin-3-yl)-phenyl]-ethyl}-phenyl)-methanesulfonamide] has an IC50 [2] of 8 nM.

For COc1c(/C=C/c2ccc(NS(C)(=O)=O)cc2COCCC(C)(C)O)cc(-c2cc(F)c[nH]c2=O)cc1C(C)(C)C [I-219, N-[4-{(E)-2-[3-tert-Butyl-5-(5-fluoro-2-oxo-1,2-dihydro-pyridin-3-yl)-2-methoxy-phenyl]-vinyl}-3-(3-hydroxy-3-methyl-butoxymethyl)-phenyl]-methanesulfonamide], the IC50 [1] was 4 nM.

Work on COc1c(/C=C/c2ccc(NS(C)(=O)=O)cc2CN2CCOC2=O)cc(-c2cc(F)c[nH]c2=O)cc1C(C)(C)C [I-220, N-[4-{(E)-2-[3-tert-Butyl-5-(5-fluoro-2-oxo-1,2-dihydro-pyridin-3-yl)-2-methoxy-phenyl]-vinyl}-3-(2-oxo-oxazolidin-3-ylmethyl)-phenyl]-methanesulfonamide] yielded an IC50 [1] of 5 nM.

With COc1c(/C=C/c2ccc(NS(C)(=O)=O)cc2CN(C)C)cc(-c2cc(F)c[nH]c2=O)cc1C(C)(C)C [I-221, N-(4-{(E)-2-[3-tert-Butyl-5-(5-fluoro-2-oxo-1,2-dihydro-pyridin-3-yl)-2-methoxy-phenyl]-vinyl}-3-dimethylaminomethyl-phenyl)-methanesulfonamide] the IC50 [1] was 11 nM.

For COc1c(/C=C/c2ccc(NS(C)(=O)=O)cc2CN2CCOCC2)cc(-c2cc(F)c[nH]c2=O)cc1C(C)(C)C [I-222, N-(4-{(E)-2-[3-tert-Butyl-5-(5-fluoro-2-oxo-1,2-dihydro-pyridin-3-yl)-2-methoxy-phenyl]-vinyl}-3-morpholin-4-ylmethyl-phenyl)-methanesulfonamide], the IC50 [1] was 1 nM.
